Laboratory results from US7282602B2, “Medicinal disulfide salts” (BioNumerik Pharmaceuticals, Inc., priority 2004, dated 2007).

Experiment: toxicity in vivo (lethality)
Description: The formula I compounds may be administered in any convenient dosage form, with the preferred formulations adapted for oral (PO) or intravenous (IV) administration. Since the water solubility of the compounds exceeds 200 mg/mL, formulations are not anticipated to be difficult to make.

O=S(=O)([O-])CCSSCCS(=O)(=O)[O-].[Na+].[Na+] [Dimesna, Disodium 2,2′-dithiobis ethane sulfonate]
toxicity compared with common table salt: less toxic than common table salt
amount not causing a single death in vivo (IV): exceeding 5000 mg/kg
